Measurements published in patent US20040137023A1, “5-Cholesten-3beta, 25-diol-7-one, esters and ethers thereof, particularly for the treatment of dry skin and scalp” (L'OREAL, priority 2002, published 2004).

Tested on: immortalized human sebocytes derived from the SZ95 line
Assay: Lipogenesis in immortalized human sebocytes in culture (Nile red fluorescence, neutral lipids)
Assay type: cell-based
Details: for LIPID VARIATION (relative to the control): treatment for 2 days, 0.1% DMSO, Nile red 485-540 nm
Experimental: 5-Cholesten-3β,25-diol-7-one was tested, in comparison with 7-oxocholesterol and 25-hydroxy-cholesterol, on a model of immortalized human sebocytes in culture, derived from the SZ95 line described in Zouboulis, C. C., Seltmann, H., Neitzel, H. and Orfanos, C. E., Establishment and Characterization of an Immortalized Human Sebaceous Gland Cell Line, J. Invest. Dermatol., 113, 1011-1020 (1999).
The test consisted in measuring the amount of lipids produced by the sebocytes of the line (at confluence), in the presence or absence of active agents diluted in DMSO, such that the final amount of DMSO in the culture medium is 0.1%. After treatment for 2 days, the adherent cells are treated with Nile red (1 μg/ml). The lipid content is then quantified by measuring the fluorescence of the dye (excitation/emission pair: 485-540 nm for the neutral lipids).
The tests are performed in sixplicate and the experiment is repeated four times.
In parallel, proliferation tests (MUH) and cell viability tests (LDH) make it possible to check that the effects obtained are not associated with an appreciable change in these biological parameters.

| SMILES | LIPID VARIATION (relative to the control) (test compound 10^−4 M) | LIPID VARIATION (relative to the control) (test compound 10^−5 M) | increase in the lipid content of the sebum (10^−5 M, same test) |
| --- | --- | --- | --- |
| C[C@H](CCCC(C)(C)O)C1CCC2C3C(=O)C=C4C[C@@H](O)CC[C@]4(C)C3CC[C@@]21C (stereo partly drawn) [5-Cholesten-3β,25-diol-7-one] | +90% | +85% | – |
| CC(C)CCC[C@@H](C)[C@H]1CC[C@H]2[C@@H]3C(=O)C=C4C[C@@H](O)CC[C@]4(C)[C@H]3CC[C@]12C [7-Oxocholesterol, 7-oxocholesterol] | +20% | – | – |
| C[C@H](CCCC(C)(C)O)[C@H]1CC[C@H]2[C@@H]3CC=C4C[C@@H](O)CC[C@]4(C)[C@H]3CC[C@]12C [25-OH cholesterol, 25-hydroxy-cholesterol] | 0% | – | – |
| C[C@]12CC[C@H](O)CC1=CC[C@@H]1[C@@H]2CC[C@]2(C)C(=O)CC[C@@H]12 [DHEA] | – | – | 13% |
